For one data set, the target named is T1, JAK1 (Homo sapiens, UniProt P23458).
T1 construct: purchased Carna Biosciences
Kind of data set: JAK1 microfluidic kinase assay (Caliper EZ Reader II, FAM labeled peptide substrate). The class given is biochemical. An outline of the steps:
(§1)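 Activity measured in 50 mM HEPES, 0.01% Brij35, 10 mM MgCl2, 2 mM DTT by microfluidic separation of phosphorylated FAM peptide. Enzyme conditions set for 10% substrate conversion.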

Data set [1] in a line: Liver microsomes study, Phase I stability (RLM). Format: in vitro ADME, rat. To be noted: pH 7.4; rat liver microsomes 0.5 mg/mL, 1 μM test article; read-out: RLM Clint. The protocol:
(§2) Commercially available liver microsomes (MsLM vendor: XENOTECH; RLM, DLM, MkL, HLM vendor: Corning) were used for study the Phase I stability of test articles. […] The reaction was initiated by addition of 80 μL of the NADPH regenerating system to 320 µL of each incubation mixture per time point. […] The 0-minute samples were prepared by addition of an 80 μL aliquot of each incubation mixture to 400 μL quench reagent to precipitate proteins. And then a 20 μL aliquot of the NADPH regenerating system was added. At 10, 30, and 90 minutes, the reaction will be stopped by the addition of cold acetonitrile solution containing tolbutamide and propanolol served as internal standard. The samples taken at all time points were centrifuged at 4000×g for 15 minutes. 80 μL of supernatant are taken into 96-well assay plates pre-added with 160 μL ultrapure water, and then analyzed by LC/MS/MS(Shimadzu LC30AD & API4000/API5000)). Concentrations of test articles, control compounds in the samples were determined by using LC/MS/MS) method. Plotting of the chromatograms and peak area integrations are carried out by Analyst (AB Sciex).
(§3) In the determination of the in vitro elimination constant, ke, of the control compounds, the analyte/internal standard peak area ratios will be converted to percentage remaining (% Remaining) with the following equation: […]
(§4) The slope was measured by the natural logarithm of the percentage of the residual compound and time, T½ and CLint were calculated according to the following formulas, V/M was equal to the 1/concentration of protein.
(In general: Liver microsomes are vesicles of endoplasmic reticulum, rich in cytochrome P450 enzymes.)

Data set [2] is described as follows: Liver microsomes study, Phase I stability (HLM). Format: in vitro ADME, human. The conditions noted are these: pH 7.4; human liver microsomes 0.5 mg/mL, 1 μM test article; read-out: HLM Clint. The protocol:
as §2, §3, §4

A short description of data set [3]: Rat pharmacokinetic study (intravenous and oral). The class given is in vivo. To be noted: male, plasma, Sprague-Dawley rats, intravenous, 1 mg/kg, solution. The protocol: Pharmacokinetic profile of test articles in rodent were evaluated in fasted male ICR mouse and Sprague-Dawley rats. […] Typically, mice were dosed with 2 mg/kg and 10 mg/kg by intravenous injection and oral gavage, respectively. Rats were dosed with 1 mg/kg and 5 mg/kg by intravenous injection and oral gavage, respectively. Beagle dogs were dosed with 1 mg/kg and 5 mg/kg by intravenous injection and oral gavage, respectively. After dosing, blood samples were collected at each time point. For IV injection group, time points were set at 5, 15, 30 min, and then 1, 2, 4, 8 and 24 hours after dosing. For oral gavage group, timepoints were set at 15, 30 m, and then 1, 2, 4, 8, and 24 hours. Blood was collected into appropriately labeled tubes containing K2EDTA as the anticoagulant. Plasma was obtained within 1 hours of blood collection by centrifugation at 8000×g and 4° C. for 6 minutes, and then stored at −20° C. until analyzed by LCMS/MS for quantification.

Another data set has as its target T2, JAK2 (Homo sapiens, UniProt O60674).
T2 construct: purchased Carna Biosciences
Kind of data set: JAK2 microfluidic kinase assay (Caliper EZ Reader II, FAM labeled peptide substrate). The class given is biochemical. The essentials:
as §1

The target in the next data set is T3, JAK2V617F (Homo sapiens, UniProt O60674, V617F).
T3 construct: purchased Carna Biosciences
Briefly: JAK2V617F microfluidic kinase assay (Caliper EZ Reader II, FAM labeled peptide substrate). The class given is biochemical. The conditions noted are these: JAK2V617F 2.5 nM, 1 mM ATP. An outline of the steps: as §1

A further data set has as its target T4, TYK2 (Homo sapiens, UniProt P29597).
T4 construct: purchased Carna Biosciences
Kind of data set: TYK2 microfluidic kinase assay (Caliper EZ Reader II, FAM labeled peptide substrate). The class given is biochemical. An outline of the steps:
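Human JAK enzymes in 50 mM HEPES, 0.01% Brij35, 10 mM MgCl2, 2 mM DTT, tuned to 10% conversion of FAM-peptide; compounds (3-fold dilutions, top 5 μM, 1% DMSO) pre-incubated 10 min. Reaction times: JAK1 120 min, JAK2 20 min, JAK2V617F 30 min, TYK2 10 min; EDTA stop, microfluidic conversion read, IC50 from % inhibition curves.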

The mark [4] stands for this setting: IC50 JAK1 (5 nM) (1 m MATP), JAK1 5 nM, 1 mM ATP.
[5] abbreviates: IC50 JAK2 ([…]) (1 mM ATP), 1 mM ATP.
The mark [6] stands for this setting: IC50 JAK2 ([…]) (Km ATP), Km ATP.
Where [7] appears, read: IC50 TYK2 (10 nM) (Km ATP), TYK2 10 nM, Km ATP.
Where [8] appears, read: IC50 TYK2 ([…]) (1 mM ATP), TYK2 […], 1 mM ATP.

Structures are written as SMILES.

T3 sequence (O60674 whole entry V617F): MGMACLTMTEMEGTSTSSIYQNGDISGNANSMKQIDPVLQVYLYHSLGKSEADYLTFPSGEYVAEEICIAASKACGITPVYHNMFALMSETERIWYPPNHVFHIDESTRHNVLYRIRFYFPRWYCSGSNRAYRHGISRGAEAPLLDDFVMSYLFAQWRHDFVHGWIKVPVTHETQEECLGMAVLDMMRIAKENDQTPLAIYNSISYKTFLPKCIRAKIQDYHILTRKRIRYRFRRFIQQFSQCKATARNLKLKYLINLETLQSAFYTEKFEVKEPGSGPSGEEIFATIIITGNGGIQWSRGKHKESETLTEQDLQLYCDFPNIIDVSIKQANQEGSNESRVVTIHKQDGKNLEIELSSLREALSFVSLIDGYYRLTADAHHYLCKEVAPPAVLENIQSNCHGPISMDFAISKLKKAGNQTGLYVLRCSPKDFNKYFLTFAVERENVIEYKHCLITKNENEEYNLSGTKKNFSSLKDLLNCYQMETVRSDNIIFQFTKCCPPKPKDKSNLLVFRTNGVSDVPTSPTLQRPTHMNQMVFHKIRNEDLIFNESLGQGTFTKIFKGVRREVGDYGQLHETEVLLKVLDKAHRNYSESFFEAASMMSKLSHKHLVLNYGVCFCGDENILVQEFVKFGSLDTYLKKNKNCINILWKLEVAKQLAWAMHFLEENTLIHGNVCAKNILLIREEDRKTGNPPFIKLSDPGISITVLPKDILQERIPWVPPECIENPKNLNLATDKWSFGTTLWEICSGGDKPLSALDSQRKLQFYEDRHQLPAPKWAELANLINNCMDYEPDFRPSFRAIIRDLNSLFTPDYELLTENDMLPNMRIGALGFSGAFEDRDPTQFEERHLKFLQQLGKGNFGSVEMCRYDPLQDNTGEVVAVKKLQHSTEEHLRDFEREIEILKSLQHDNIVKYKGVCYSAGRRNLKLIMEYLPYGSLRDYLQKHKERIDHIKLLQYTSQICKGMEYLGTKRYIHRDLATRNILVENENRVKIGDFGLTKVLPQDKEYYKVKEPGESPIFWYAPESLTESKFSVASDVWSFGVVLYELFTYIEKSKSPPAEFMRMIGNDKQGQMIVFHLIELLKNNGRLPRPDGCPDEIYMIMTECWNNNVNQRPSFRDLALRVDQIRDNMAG
T2 sequence (O60674 whole entry): as the sequence (O60674 whole entry V617F) above, with F617V counted along it
T1 sequence (P23458 whole entry): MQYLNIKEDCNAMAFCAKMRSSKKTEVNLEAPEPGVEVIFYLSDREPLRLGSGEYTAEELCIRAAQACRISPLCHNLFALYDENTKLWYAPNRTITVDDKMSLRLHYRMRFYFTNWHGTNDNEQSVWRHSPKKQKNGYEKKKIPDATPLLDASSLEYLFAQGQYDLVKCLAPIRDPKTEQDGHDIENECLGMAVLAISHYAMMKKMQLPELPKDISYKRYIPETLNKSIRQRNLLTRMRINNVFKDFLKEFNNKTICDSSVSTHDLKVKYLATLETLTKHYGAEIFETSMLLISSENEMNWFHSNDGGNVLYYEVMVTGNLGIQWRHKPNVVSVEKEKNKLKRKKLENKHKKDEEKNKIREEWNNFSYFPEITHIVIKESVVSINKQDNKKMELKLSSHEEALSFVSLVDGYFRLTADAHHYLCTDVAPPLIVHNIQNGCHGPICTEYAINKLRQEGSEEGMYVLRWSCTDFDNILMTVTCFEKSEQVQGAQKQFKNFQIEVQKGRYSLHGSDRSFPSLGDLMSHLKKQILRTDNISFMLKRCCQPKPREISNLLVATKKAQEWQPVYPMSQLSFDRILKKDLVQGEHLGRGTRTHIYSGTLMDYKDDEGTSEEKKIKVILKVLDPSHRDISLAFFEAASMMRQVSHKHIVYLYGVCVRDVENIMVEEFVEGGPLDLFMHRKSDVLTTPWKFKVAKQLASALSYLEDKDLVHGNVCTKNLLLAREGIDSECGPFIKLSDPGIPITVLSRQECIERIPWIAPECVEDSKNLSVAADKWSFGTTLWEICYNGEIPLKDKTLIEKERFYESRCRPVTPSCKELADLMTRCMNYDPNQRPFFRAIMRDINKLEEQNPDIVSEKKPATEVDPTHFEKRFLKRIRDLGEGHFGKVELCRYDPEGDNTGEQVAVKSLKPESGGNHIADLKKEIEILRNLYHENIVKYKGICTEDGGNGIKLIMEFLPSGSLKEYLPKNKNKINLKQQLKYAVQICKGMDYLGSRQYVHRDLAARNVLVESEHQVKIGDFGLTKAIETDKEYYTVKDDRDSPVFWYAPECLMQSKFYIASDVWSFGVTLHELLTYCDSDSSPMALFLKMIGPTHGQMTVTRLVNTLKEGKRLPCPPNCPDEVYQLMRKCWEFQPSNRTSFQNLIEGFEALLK
T4 sequence (P29597 whole entry): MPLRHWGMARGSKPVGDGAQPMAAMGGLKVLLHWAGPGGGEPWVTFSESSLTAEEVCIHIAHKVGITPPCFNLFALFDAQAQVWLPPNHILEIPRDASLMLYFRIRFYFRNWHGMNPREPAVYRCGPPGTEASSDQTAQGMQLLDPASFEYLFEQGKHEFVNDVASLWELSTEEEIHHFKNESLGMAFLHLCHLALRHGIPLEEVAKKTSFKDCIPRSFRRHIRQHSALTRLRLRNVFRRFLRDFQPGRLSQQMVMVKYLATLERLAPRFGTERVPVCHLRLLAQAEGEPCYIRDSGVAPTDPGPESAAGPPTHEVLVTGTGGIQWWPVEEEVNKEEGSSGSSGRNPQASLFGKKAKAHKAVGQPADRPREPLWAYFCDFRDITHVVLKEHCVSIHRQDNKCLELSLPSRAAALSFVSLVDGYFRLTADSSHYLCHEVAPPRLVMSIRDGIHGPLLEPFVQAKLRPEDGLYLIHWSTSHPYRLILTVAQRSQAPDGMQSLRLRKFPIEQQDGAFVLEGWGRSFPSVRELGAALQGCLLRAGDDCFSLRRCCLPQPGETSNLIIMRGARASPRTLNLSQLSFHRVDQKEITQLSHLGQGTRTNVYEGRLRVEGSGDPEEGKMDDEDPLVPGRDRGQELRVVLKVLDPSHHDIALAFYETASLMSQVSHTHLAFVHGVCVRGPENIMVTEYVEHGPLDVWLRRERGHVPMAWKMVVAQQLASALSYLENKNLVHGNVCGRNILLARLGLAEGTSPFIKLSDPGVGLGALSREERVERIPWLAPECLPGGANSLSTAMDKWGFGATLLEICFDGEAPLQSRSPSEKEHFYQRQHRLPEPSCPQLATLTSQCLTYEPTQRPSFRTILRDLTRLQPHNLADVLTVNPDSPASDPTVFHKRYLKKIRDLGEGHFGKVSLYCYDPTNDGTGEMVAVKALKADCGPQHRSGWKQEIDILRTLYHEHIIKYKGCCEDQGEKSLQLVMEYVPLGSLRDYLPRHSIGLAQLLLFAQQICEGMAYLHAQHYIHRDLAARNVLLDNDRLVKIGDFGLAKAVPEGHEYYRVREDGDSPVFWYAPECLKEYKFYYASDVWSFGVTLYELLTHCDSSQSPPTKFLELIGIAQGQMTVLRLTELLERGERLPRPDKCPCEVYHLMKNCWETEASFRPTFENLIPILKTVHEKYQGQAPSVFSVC

`Cc1cnc(Nc2cnn(C)c2)nc1-c1ccc(C(=O)NCC2(C#N)CC2)cc1` [Example 12, N-((1-Cyanocyclopropyl)methyl)-4-(5-methyl-2-((1-methyl-1H-pyrazol-4-yl)amino)pyrimidin-4-yl)benzamide]: the IC50 against JAK1 (setting [4]) is 37.5 nM. For the same compound, the microsomal CLint at 1 μM in data set [1] came out at 132 µL/min/mg. Moreover, in data set [2], the microsomal CLint at 1 μM amounted to 4.6 µL/min/mg. Besides, in data set [3], the AUC is 624 ng·h/mL, the Vd was 0.98 L/kg, the clearance turned out to be 27.1 mL/min/kg and the half-life was 26.4 min. On JAK2 (setting [5]), this compound showed an IC50 of 95.5 nM. At JAK2 (setting [6]), this compound displayed a half-maximal inhibitory concentration (IC50) of 3.2 nM.
As for `Cc1cnc(Nc2cnn(C3CCN(C(=O)C4CC4)CC3)c2)nc1-c1ccc(C(=O)NCC#N)cc1` [Example 24, N-(Cyanomethyl)-4-(2-((1-(1-(cyclopropanecarbonyl)piperidin-4-yl)-1H-pyrazol-4-yl)amino)-5-methylpyrimidin-4-yl)benzamide], the IC50 at JAK1 (setting [4]) was 13.8 nM; on JAK2V617F, 2.53 nM; at JAK2 (setting [5]) it was less than 0.25 nM; on JAK2 (setting [6]), less than 0.25 nM. For the same compound, the microsomal CLint at 1 μM in data set [1] stood at 53.6 µL/min/mg; in data set [2] it was 52.8 µL/min/mg. In addition, in data set [3], the AUC stood at 1970 ng·h/mL. This compound also yielded a Vd in data set [3] of 0.43 L/kg. Also, in data set [3], the clearance turned out to be 8.4 mL/min/kg. The compound further gave a half-life in data set [3] of 37.8 min.
Regarding `Cc1cnc(Nc2cnn(C3CC3)c2)nc1-c1ccc(C(=O)NCC#N)cc1` [Example 25, N-(Cyanomethyl)-4-(2-((1-cyclopropyl-1H-pyrazol-4-yl)amino)-5-methylpyrimidin-4-yl)benzamide], the IC50 against JAK1 (setting [4]) came out at 11.2 nM; on JAK1 (IC50 JAK1 (10 nM) (Km ATP), JAK1 10 nM, Km ATP), 1.34 nM; at JAK2V617F, 47.5 nM; on JAK2 (setting [5]), 20.9 nM; against JAK2 (setting [6]) it was 0.69 nM. In addition, the microsomal CLint at 1 μM was determined as 263 µL/min/mg in data set [1] and 5.19 µL/min/mg in data set [2]. In addition, the AUC in data set [3] stood at 607 ng·h/mL. This compound also had a Vd in data set [3] of 0.6 L/kg. The same compound returned a clearance in data set [3] of 29.8 mL/min/kg. Further, the half-life in data set [3] was 12 min.
Turning to `Cc1cnc(Nc2cnn(CC(F)(F)F)c2)nc1-c1ccc(C(=O)NCC#N)cc1` [Example 28, N-(Cyanomethyl)-4-(5-methyl-2-((1-(2,2,2-trifluoroethyl)-1H-pyrazol-4-yl)amino)pyrimidin-4-yl)benzamide], at JAK2V617F, half-maximal inhibition (IC50) required 193 nM. In data set [3], this compound had an AUC of 732 ng·h/mL, a Vd of 0.8 L/kg, a clearance of 22.9 mL/min/kg and a half-life of 24 min. Further, inhibition at JAK2 (setting [5]) was half-maximal at 82.2 nM (IC50). Moreover, inhibition against JAK2 (setting [6]) was half-maximal at 2.73 nM (IC50).
For `Cc1cnc(Nc2cnn(C3CCOCC3)c2)nc1-c1ccc(C(=O)NCC2(C#N)CC2)cc1` [Example 37, N-((1-cyanocyclopropyl)methyl)-4-(5-methyl-2-((1-(tetrahydro-2H-pyran-4-yl)-1H-pyrazol-4-yl)amino)pyrimidin-4-yl)benzamide], the IC50 was determined as 28.8 nM against TYK2 (setting [7]), 50.5 nM against JAK2 (setting [5]) and 0.54 nM on JAK2 (setting [6]). For the same compound, the microsomal CLint at 1 μM in data set [1] is 40.7 µL/min/mg; in data set [2], 20.7 µL/min/mg.
In the case of `Cc1cnc(Nc2cnn(C3C[C@@H](C)O[C@@H](C)C3)c2)nc1-c1ccc(C(=O)N[C@@H](C)C#N)cc1` (stereo partly drawn) [Example 73, N—((S)-1-cyanoethyl)-4-(2-((1-(cis-2,6-dimethyltetrahydro-2H-pyran-4-yl)-1H-pyrazol-4-yl)amino)-5-methylpyrimidin-4-yl)benzamide], the IC50 at TYK2 (setting [8]) worked out at 74.4 nM; on JAK1 (setting [4]), 34.4 nM; against JAK2V617F, 8.15 nM. Also, the results for the microsomal CLint at 1 μM in data set [1] and in data set [2] were 259 µL/min/mg and 268 µL/min/mg, respectively.
`C[C@H](C#N)NC(=O)c1ccc(-c2nc(Nc3cnn(C)c3)ncc2Cl)cc1` [Example 97, (R)-4-(5-Chloro-2-((1-methyl-1H-pyrazol-4-yl)amino)pyrimidin-4-yl)-N-(1-cyanoethyl)benzamide]: the values for the IC50 at TYK2 (setting [8]), at JAK1 (setting [4]) and at JAK2V617F were 218 nM, 11.3 nM and 147 nM, respectively. Besides, the microsomal CLint at 1 μM in data set [1] came to 16.9 µL/min/mg; in data set [2], 2.39 µL/min/mg.
Regarding `Cc1cnc(Nc2cnn(C3CC3)c2)nc1-c1ccc(C(=O)NC2(C#N)CC2)cc1` [Example 160, N-(1-cyanocyclopropyl)-4-(2-((1-cyclopropyl-1H-pyrazol-4-yl)amino)-5-methylpyrimidin-4-yl)benzamide], the IC50 against TYK2 (setting [7]) is 17.2 nM; at JAK2 (setting [5]) it was 70.4 nM; at JAK2 (setting [6]), 0.73 nM. The microsomal CLint at 1 μM was determined as 110 µL/min/mg in data set [1] and 16.9 µL/min/mg in data set [2].
`Cc1cnc(Nc2cnn(C3CCN(C(=O)C4CC4)CC3)c2)nc1-c1ccc(C(=O)N[C@@H](C)C#N)cc1` [Example 163, (S)—N-(1-cyanoethyl)-4-(2-((1-(1-(cyclopropanecarbonyl)piperidin-4-yl)-1H-pyrazol-4-yl)amino)-5-methylpyrimidin-4-yl)benzamide]: the IC50 on TYK2 (setting [7]) turned out to be 12 nM; on JAK2 (setting [5]), 0.69 nM. Besides, the microsomal CLint at 1 μM amounted to 54.9 µL/min/mg in data set [1] and 68.4 µL/min/mg in data set [2].
In the case of `Cc1cnc(Nc2cnn(C(C)C(F)(F)F)c2)nc1-c1ccc(C(=O)N[C@@H](C)C#N)cc1` (stereo partly drawn) [Example 166, N—((S)-1-Cyanoethyl)-4-(5-methyl-2-((1-(1,1,1-trifluoropropan-2-yl)-1H-pyrazol-4-yl)amino)pyrimidin-4-yl)benzamide], the IC50 was found to be 22.1 nM against TYK2 (setting [8]), 10.4 nM against JAK1 (setting [4]) and 15.6 nM against JAK2 (setting [5]). The figures for the microsomal CLint at 1 μM in data set [1] and in data set [2] were 161 µL/min/mg and 7.27 µL/min/mg, respectively.
Consider `Cc1cnc(Nc2cnn(C3CCN(C)CC3)c2)nc1-c1ccc(C(=O)N[C@H](C#N)C(C)C)cc1` [Example 174, (S)—N-(1-cyano-2-methylpropyl)-4-(5-methyl-2-((1-(1-methylpiperidin-4-yl)-1H-pyrazol-4-yl)amino)pyrimidin-4-yl)benzamide], for which the 50% inhibitory concentration (IC50) turned out to be 1.33 nM at TYK2 (setting [8]), 1.28 nM on JAK1 (setting [4]) and 0.86 nM against JAK2 (setting [5]). Besides, the values for the microsomal CLint at 1 μM in data set [1] and in data set [2] were 115 µL/min/mg and 45.7 µL/min/mg, respectively.
For `Cc1cnc(Nc2cnn(C3CCN(C)CC3)c2)nc1-c1ccc(C(=O)N[C@H](C#N)C2CC2)cc1` [Example 180, (S)—N-(cyano(cyclopropyl)methyl)-4-(5-methyl-2-((1-(1-methylpiperidin-4-yl)-1H-pyrazol-4-yl)amino)pyrimidin-4-yl)benzamide], the IC50 against TYK2 (setting [8]) came out at 1.04 nM; against JAK1 (setting [4]), 0.85 nM; against JAK2 (setting [5]), 0.59 nM. In addition, the microsomal CLint at 1 μM in data set [1] worked out at 91.8 µL/min/mg; in data set [2] it was 23.1 µL/min/mg.
With `CC[C@@H](C#N)NC(=O)c1ccc(-c2nc(Nc3cnn(C4CC(C)(C)OC(C)(C)C4)c3)ncc2Cl)cc1` [Example 182, (S)-4-(5-Chloro-2-((1-(2,2,6,6-tetramethyltetrahydro-2H-pyran-4-yl)-1H-pyrazol-4-yl)amino)pyrimidin-4-yl)-N-(1-cyanopropyl)benzamide], the values for the half-maximal inhibitory concentration (IC50) at TYK2 (setting [8]), at JAK1 (setting [4]) and against JAK2 (setting [5]) were 0.58 nM, 8.65 nM and less than 0.25 nM, respectively. In addition, the results for the microsomal CLint at 1 μM in data set [1] and in data set [2] were 51.9 µL/min/mg and 180 µL/min/mg, respectively.

For orientation: IC50 means the concentration needed to halve the response being measured. As a reminder, the AUC is concentration integrated over time. As usually defined, the half-life is the time needed for the level to fall by half in the phase considered.

Values taken from patent US12595253B2, “Benzamides of pyrazolylamino-pyrimidinyl derivatives, and compositions and methods thereof” (LYNK PHARMACEUTICALS CO. LTD., priority 2019, dated 2026).
